Measurements published in publication PMC5466964, “Alkyl Protocatechuate-Loaded Nanostructured Lipid Systems as a Treatment Strategy for Paracoccidioides brasiliensis and Paracoccidioides lutzii In Vitro” (Frontiers in Microbiology, 2017).
Values after ≈ are worked out from the molar mass of the structure shown. “Also recorded” adds a separate entry of the source.

Columns and labels:
[1] = Cytotoxicity assay, 0.4% sulforhodamine B, MRC5; format: cell-based; settings: human, MRC5 cells; for IC50 at 24 h: 24 h treatment, SRB; for viability at 24 h: at MIC, read-out: cell viability at the MIC values
Experimental: The cytotoxicity of the protocatechuates was assessed in the MRC5 cell line (MRC5) obtained from the American Type Culture Collection (ATCC; Manassas, VA, United States) and HepG2 cell line obtained from the Biotechnology Laboratory Biotech (UNICAMP, Brazil). The plates were first incubated with 1 × 10^5 cells per well at 36.5°C under 5% CO2 for 24 h to form a cell monolayer ([Husøy et al., 1993]). Compounds were tested at different concentrations ranging from 0.12 to 62.5 μg/mL using serial dilutions in a total volume of 100 μL per well. After the 24 h treatment the cytotoxicity was assessed by the 0.4% sulforhodamine B (SRB) ([Vichai and Kirtikara, 2006]). The assay is sensitive and measures the cellular protein content of adherent or suspension cultures in 96-well plates. Cells were fixed with trichloroacetic acid (TCA) and then stained for 30 min with SRB dissolved in acetic acid. In mildly acidic conditions, SRB binds on basic amino acid residues on TCA-fixed cells. The unbound dye is then removed after washing and the dye bound to the protein is solubilized in basic medium (Tris-base). The absorbance was measured at 570 nm. The result of the percentage of viable cells was performed using the following formula: according to [Rajpoot et al. (2012)] with minor modification.
Viable cells % = (test mean - hite mean/mean negative control - mean white) × 100

[2] = system: P. brasiliensis S2 (02) (Pb02); assay: MIC by microdilution (CLSI M27-A3 modified, alamar blue), Pb02; format: cell-based; settings: Paracoccidioides brasiliensis, read-out: Pb02 MIC, P. brasiliensis Pb02
Experimental: (§1) Paracoccidioides brasiliensis S1 isolate 18 (Pb18-chronic PCM/São Paulo, Brazil), P. brasiliensis S2 (02-chronic PCM/Venezuela), and P. lutzii Pb01-strain ATCC MYA-826 (acute PCM/Goiânia, Brazil) were obtained from the mycology collection of the Mycology Laboratory, School of Pharmaceutical Sciences and were maintained in Fava-Netto agar medium at 37°C.
(§2) The MIC assay was performed according to the microdilution method described by Clinical and Laboratory Standards Institute ([CLSI, 2008]) document M27-A3 with modifications ([de Paula e Silva et al., 2013]). Alkyl derivatives of protocatechuic acid (hexyl, heptyl, octyl, nonyl, decyl, and dodecyl protocatechuates) were diluted according to CLSI M27-S3. The yeast suspension was adjusted to a final concentration of 1.5 × 10^3 CFU/mL in RPMI-1640 medium (Sigma–Aldrich, St. Louis, MO, United States) in 96-well plates and serial dilutions (from 250 to 0.24 μg/mL) of the compounds were then added; AMB and ITC were used as controls. The plates were incubated on a shaker at 37°C/150 rpm for a specific duration individually determined for each microorganism. The MIC was determined using alamar blue (Sigma–Aldrich, St. Louis, MO, United States) at 530 and 570 nm; a change from the original blue color of the reagent to pink […]. Following 72 or 96 h of incubation. The Minimum Fungicide Concentration (MFC) was determined by transferring an aliquot from the wells to Brain Heart Infusion (BHI) medium supplemented with 2% glucose (Difco, BD Biosciences) plates, which were then incubated at 37°C for 5–7 days. The MFC was defined as the concentration that inhibited growth ([Soares et al., 2014]).

[3] = system: P. lutzii Pb01-strain ATCC MYA-826; assay: MIC by microdilution (CLSI M27-A3 modified, alamar blue), Pb01; format: cell-based; settings: Paracoccidioides lutzii, read-out: Pb01 MIC
Experimental: as §1, §2

[4] = system: Paracoccidioides brasiliensis S1 isolate 18 (Pb18); assay: MIC by microdilution (CLSI M27-A3 modified, alamar blue), Pb18; format: cell-based; settings: read-out: Pb18 MIC
Experimental: as §1, §2

[5] = system: P. brasiliensis (Pb 18) adhesion to cell line MRC5; assay: Inhibition of P. brasiliensis 18 adhesion to cells (MRC5), flow cytometry; format: cell-based, Paracoccidioides brasiliensis; settings: Pb18 on MRC5, 3 h adhesion, 24 h treatment
Experimental: Cells (MRC5) were cultured at 36.5°C in 24-well plates and adjusted to 1 × 10^5 cells per well. A P. brasiliensis suspension (1.5 × 10^3 CFU/mL) was labeled with 10 μM of 5(6)-carboxyfluorescein diacetate N-succinimidyl ester (CFSE; Sigma–Aldrich) and then added to the cells. The plate was incubated for 3 h at 36.5°C under 5% CO2 to enable the adhesion process. Subsequent to treatment, dodecyl and NLS+dodecyl were applied and the plate was incubated for 24 h under the same conditions. The supernatant was removed and the plate was washed with PBS. Then, 300 μL of trypsin (Sigma–Aldrich,) was added and centrifuged. The supernatant was discarded and 500 μL of FACS buffer was added to each tube, for subsequent cell counting by flow cytometry (BD FACS Canto) and BD FACS Diva software analysis ([Mendes-Giannini et al., 1994], [2004]; [Hanna et al., 2000]).

[6] = system: P. brasiliensis (Pb18) adhesion to laminin matrix; assay: Inhibition of P. brasiliensis 18 adhesion to artificial ECM: laminin; format: cell-based, Paracoccidioides brasiliensis; settings: Pb18, 3 h adhesion, 24 h treatment
Experimental: (§3) Initially, 24-well plates were coated with ECM of fibronectin and laminin, respectively (Sigma–Aldrich, St. Louis, MO, United States) at a concentration of 50 μg/mL for 18 h at 4°C followed by incubation for 1 h at 37°C. The plates were then washed three times with PBS and fungal suspension was added at a concentration of 1.5 × 10^3 CFU/mL, which had been inoculated into the 24-well plate previously sensitized with ECM and incubated at 37°C for 1, 3, or 5 h. Subsequently, the supernatant was removed, the plate was washed with PBS, and then 300 μL of trypsin was added (Sigma). The supernatant was obtained and then centrifuged at 10,000 rpm for 5 min at (4°C). The new supernatant was discarded and 500 μL of FACS buffer was added for subsequent cell counting by flow cytometry (BD FACS Canto and BD FACS Diva software analysis). Following the adhesion period, treatment with the selected compound (dodecyl and NLS+dodecyl) was performed for 24 h at 37°C. RPMI-1640 with L-glutamine and 2% glucose was used to maintain adequate nutritional status. Subsequently, the supernatant was removed and the plate was washed with PBS. Then, 300 μL of trypsin was added and centrifuged. The supernatant was discarded and 500 μL of FACS buffer was added to each tube for subsequent cell counting by flow cytometry (BD FACS Canto and BD FACS Diva software analysis).

[7] = system: P. brasiliensis (Pb18) adhesion to fibronectin matrix; assay: Inhibition of P. brasiliensis 18 adhesion to artificial ECM: fibronectin; format: cell-based, Paracoccidioides brasiliensis; settings: Pb18, 3 h adhesion, 24 h treatment
Experimental: as §3

[8] = system: Caenorhabditis elegans wild-type strain N2; assay: Toxicity assay in C. elegans model; format: in vivo; settings: 24 h; for toxic effect on C. elegans survival: 0.03 to 125 μg/mL
Experimental: Caenorhabditis elegans wild-type strain N2 was routinely cultured at 22°C on nematode growth medium (NGM) plates seeded with E. coli strain OP50. For the toxicity assay, eggs were harvested to obtain synchronous cultures. After 3 days, worms in the L4 stage were washed with M9 buffer. Then, approximately 20 worms were transferred to each well of a 96-wells plate containing 100 μL of 60% M9 buffer, 40% BHI, 10 μg/mL cholesterol (in ethanol), 200 μg/mL ampicillin, and 90 μg/mL kanamycin. Next, 100 μL of dodecyl protocatechuate, NLS, or NLS+dodecyl were added to the medium with final compound concentrations in each well ranging from 0.03 to 125 μg/mL. The plate was incubated at 22°C for 24 h. Worm survival was evaluated based on mobility and form (worms with a stick shape were considered dead and worms with a sinusoidal shape were considered alive). Images were acquired using an IN Cell Analyzer 2000 (GE Healthcare), microscope (10×).

| SMILES | IC50 at 24 h [1] | viability at 24 h [1] | MIC [2] | MIC [3] | MIC [4] | inhibition of adhesion to cells [5] | inhibition of adhesion to the laminin matrix [6] | inhibition of adhesion to the fibronectin matrix [7] | Survival percentage of C. elegans worms ([8]; 0.03 μg/mL) | Survival percentage of C. elegans worms ([8]; 0.48 μg/mL) | Survival percentage of C. elegans worms ([8]; 7.80 μg/mL) | Survival percentage of C. elegans worms ([8]; 15.60 μg/mL) | Survival percentage of C. elegans worms ([8]; 62.50 μg/mL) | Survival percentage of C. elegans worms ([8]; 125.00 μg/mL) | toxic effect on C. elegans survival [8] | toxic effect on C. elegans survival ([8]; listed as free dodecyl protocatechuate) |
| --- | --- | --- | --- | --- | --- | --- | --- | --- | --- | --- | --- | --- | --- | --- | --- | --- |
| CCCCCCCCOC(=O)c1ccc(O)c(O)c1 [octyl, octyl protocatechuate] | 33.7 µg/mL (≈ 127 µM) | 98% | 1.9 µg/mL (≈ 7.13 µM) | 0.97 µg/mL (≈ 3.64 µM) | 0.97 µg/mL (≈ 3.64 µM) | – | – | – | – | – | – | – | – | – | – | – |
| CCC(C)n1ncn(-c2ccc(N3CCN(c4ccc(OCC5COC(Cn6cncn6)(c6ccc(Cl)cc6Cl)O5)cc4)CC3)cc2)c1=O (stereo not drawn) [ITC, itraconazole, reference compound] | 0.1 µg/mL (≈ 0.142 µM) | – | 0.01 µg/mL (≈ 0.0142 µM) | 0.12 µg/mL (≈ 0.17 µM) | 0.02 µg/mL (≈ 0.0283 µM) | – | – | – | – | – | – | – | – | – | – | – |
| CCCCCCCCCCCCOC(=O)c1ccc(O)c(O)c1 [dodecyl, Dodecyl protocatechuate] | 17.9 µg/mL (≈ 55.5 µM) | 98% | 0.24 µg/mL (≈ 0.744 µM) | 0.48 µg/mL (≈ 1.49 µM) | 0.48 µg/mL (≈ 1.49 µM) | 65% | 75% | 64% | 100% | 100% | 100% | 100% | 100% | 100% | neither dodecyl nor NLS+dodecyl exhibited any toxic effects; also recorded: did not affect worm survival at any concentration | neither compound exhibited a toxic effect on survival |
| C[C@@H]1[C@H](O)[C@@H](C)/C=C/C=C/C=C/C=C/C=C/C=C/C=C/[C@H](O[C@@H]2O[C@H](C)[C@@H](O)[C@H](N)[C@@H]2O)C[C@@H]2O[C@](O)(C[C@@H](O)C[C@@H](O)[C@H](O)CC[C@@H](O)C[C@@H](O)CC(=O)O[C@H]1C)C[C@H](O)[C@H]2C(=O)O [AMB, Amphotericin B, reference compound] | 0.22 µg/mL (≈ 0.238 µM) | – | – | 0.06 µg/mL (≈ 0.0649 µM) | 0.13 µg/mL (≈ 0.141 µM) | – | – | – | – | – | – | – | – | – | – | – |
| CCCCCCCCCOC(=O)c1ccc(O)c(O)c1 [nonyl, nonyl protocatechuate] | 17.7 µg/mL (≈ 63.1 µM) | 96% | 0.48 µg/mL (≈ 1.71 µM) | 0.97 µg/mL (≈ 3.46 µM) | 1.9 µg/mL (≈ 6.78 µM) | – | – | – | – | – | – | – | – | – | – | – |
| CCCCCCOC(=O)c1ccc(O)c(O)c1 [hexyl, hexyl protocatechuate] | 29.5 µg/mL (≈ 124 µM) | 99% | 1.9 µg/mL (≈ 7.97 µM) | 7.8 µg/mL (≈ 32.7 µM) | 3.9 µg/mL (≈ 16.4 µM) | – | – | – | – | – | – | – | – | – | – | – |
| CCCCCCCOC(=O)c1ccc(O)c(O)c1 [heptyl, heptyl protocatechuate] | 17.6 µg/mL (≈ 69.8 µM) | 65% | 0.24 µg/mL (≈ 0.951 µM) | 3.9 µg/mL (≈ 15.5 µM) | 7.8 µg/mL (≈ 30.9 µM) | – | – | – | – | – | – | – | – | – | – | – |
| CCCCCCCCCCOC(=O)c1ccc(O)c(O)c1 [decyl, decyl protocatechuate] | 16 µg/mL (≈ 54.3 µM) | 98% | 0.48 µg/mL (≈ 1.63 µM) | 1.9 µg/mL (≈ 6.45 µM) | 0.97 µg/mL (≈ 3.29 µM) | – | – | – | – | – | – | – | – | – | – | – |
